Experimental data reported in article PMC5093622, “Structural characterisation of high affinity Siglec-2 (CD22) ligands in complex with whole Burkitt’s lymphoma (BL) Daudi cells by NMR spectroscopy” (Scientific Reports, 2016).
Values belong to the compound of their own block, whether it stands above or below them.

Columns and labels:
Siglec-2 = details: cited from earlier work
Siglec-2 Fc chimeras = target: T1, Siglec-2 Fc chimeras (Homo sapiens, UniProt P20273); experiment: Surface Plasmon Resonance (SPR) assay; format: binding
T1 construct: the three N-terminal Ig-domains of Siglec-2 were fused to the C-terminal human IgG1 Fc domain; made in house; host or cells: CHO-Lec1
Method: Recombinant Siglec-2 (CD22) Fc-chimeras were expressed in CHO-Lec1 and protein purification was performed as described. The recombinant Siglec-2-Fc chimera, in which the three N-terminal Ig-domains of Siglec-2 were fused to the C-terminal human IgG1 Fc domain, was expressed in CHO-Lec1 cells.
Siglec-Fc chimeras were either captured to anti-Fc antibody-derivatised dextran surface of a Reichert SR7500DC flow cell or directly immobilized by amide coupling. N-acetylneuraminic acid derivatives at various concentrations in PBS were passed over the flow cell at a flow rate of 20 μL/min followed by buffer for dissociation. Specific binding was determined by subtracting the signal obtained from the reference cell (ethanolamine derivatised dextran surface) from the sample cell derivatised with Siglec-2 Fc chimeras. The data were analysed and fitted using the software Scrubber (BioLogic). Corresponding sensorgrams for 7 and 8 are shown in Supplementary Figure 2a,b, respectively.

[1] = test system: T2, Siglec-2 transiently expressed on HEK293T cells; experiment: STD NMR binding to untransfected and Siglec-2 transfected HEK293T cells; design: species or system human
T2 construct: host or cells: HEK293T
Method: (§1) STD NMR spectra were performed using a Bruker Advance 600 MHz spectrometer, equipped with a 5-mm TXI probe with triple axis gradients at 283 K. 5 × 10^5 BL Daudi and 1 × 10^6 HEK293T cells were washed three times with the optimised deuterated NMR buffer by centrifugation at 1,300 rpm, at room temperature for 5 min and resuspending in 200 μL. The ligand concentration was adjusted to 0.5 mM for all experiments. To determine the binding epitope of the ligands when bound to cells STDD (Saturation Transfer Double Difference) spectra were generated by subtracting STD NMR signals from the ligand-cell complex from the spectrum obtained in the absence of cells or protein.
The full-length codon-optimized coding sequence of Siglec-2 (Uniprot entry P20273-1) cloned in plasmid pD2517 was purchased from DNA2.0 (Menlo Park, CA, USA). Plasmid amplification was performed by transformation into chemically competent E. coli NEB 5-alpha (Ipswich, MA, USA) followed by purification using a NucleoBond XTRA EF Plasmid Purification Kit (Machery Nagel, Duren, Germany, EU). […] Transfection efficiency was monitored by flow cytometry analysis 24 and 48 h post-transfection. […]

[2] = test system: T3, Siglec-2 expressed on intact Burkitt's lymphoma (BL) Daudi cells; experiment: STD NMR binding to intact BL Daudi cells; design: species or system human; details: for STD NMR signals in the presence of BL Daudi cells: 0.5 mM ligand, 5.0 × 10^5 BL Daudi cells, 283 K
T3 construct: host or cells: BL Daudi cells
Excerpt: Anti-human Siglec-1 (CD169)-FITC, (clone: 7-239); Siglec-3 (CD33)-FITC, (clone: AC104.3E3); Siglec-5 (CD170)-FITC (clone: 1A5); Siglec-7 (CD328)-VioBlue, (clone: REA214); Siglec-8-FITC, (clone: 7C9) and relevant isotype controls were purchased from Miltenyi Biotech (Bergisch Gladbach, Germany, UE). Mouse anti-human Siglec-2 (CD22) primary antibody (clone RFB4) and the relevant isotype control (clone 1E2.2) were purchased from Merck Group (Darmstadt, Germany, UE). The rat anti-mouse secondary antibody BV421 conjugated was purchased from BD Biosciences (San Jose, CA, USA). Rabbit anti-human Siglec-4 (Myelin Associated Glycoprotein, MAG) was purchased from LifeSpan BioSciences (Seattle, WA, USA). The Donkey anti-rabbit secondary antibody (Clone Poly4064)-BV421 conjugated was purchased from Biolegend (San Diego, CA, USA). Anti-human Siglec-5/Siglec-14-APC (Clone 194128), Siglec-6 (CD327)-APC (Clone 767329), Siglec-9-FITC (Clone 191240); Goat Siglec-10-PE Affinity Purified PAb, Goat Siglec-11-PE Affinity Purified PAb, Goat IgG-PE control, Siglec-16-APC (Clone 706022), and relevant isotypes were purchased from R&D Systems (Minneapolis, MN, USA). BL Daudi and HEK293T cells were incubated with the antibodies for one hour at 4 °C in PBS supplemented with 1% FCS (PBS-FBS) at a ratio of 1 μg of antibody per 1 × 10^6 cells. The cells were washed three times and then suspended in 1 mL of PBS-FBS buffer prior to flow cytometry analysis. Propidium iodide was used at a concentration of 10 ug/mL to differentiate viable from non-viable cells. Secondary antibodies were used according to the suppliers’ instructions. A CyAn ADP Flow Cytometer and Kaluza Flow Cytometry software were used for flow cytometric analysis (Beckman Coulter, Brea, CA, USA). For sorting the BL Daudi cells into Siglec-2^low and Siglec-2^high fractions, antibody staining was achieved as described above. RPMI-1640 medium containing 50% v/v FBS was used for collecting sorted cells to minimise cell damage. Cells were sorted into low and high expressing Siglec-2 groups based on their fluorescence intensity, using MoFlo XDP (Beckman Coulter, CA, USA).
as §1
Mild periodate treatment to disrupt cis-binding was performed following published procedures. BL Daudi cells were resuspended in phosphate buffer (pH 7.4) containing freshly dissolved 2 mM NaIO4 and incubated at 4 °C in the dark. After 30 min, the excess of periodate was quenched by adding 10 μL of 20% deuterated glycerol followed by immediate washing with deuterated buffer optimised for cell NMR experiments. The STD NMR on-resonance frequency was set to −1.00 ppm and the off-resonance to 300 ppm. To ensure the viability of the cells during NMR acquisition 256 scans were chosen resulting in a total acquisition time of 53 min.

[3] = design: method as in PMID 10589082; details: patients treated with Rituximab; cited from earlier work

T1 sequence (P20273 with tags, fused parts or gaps limits assumed): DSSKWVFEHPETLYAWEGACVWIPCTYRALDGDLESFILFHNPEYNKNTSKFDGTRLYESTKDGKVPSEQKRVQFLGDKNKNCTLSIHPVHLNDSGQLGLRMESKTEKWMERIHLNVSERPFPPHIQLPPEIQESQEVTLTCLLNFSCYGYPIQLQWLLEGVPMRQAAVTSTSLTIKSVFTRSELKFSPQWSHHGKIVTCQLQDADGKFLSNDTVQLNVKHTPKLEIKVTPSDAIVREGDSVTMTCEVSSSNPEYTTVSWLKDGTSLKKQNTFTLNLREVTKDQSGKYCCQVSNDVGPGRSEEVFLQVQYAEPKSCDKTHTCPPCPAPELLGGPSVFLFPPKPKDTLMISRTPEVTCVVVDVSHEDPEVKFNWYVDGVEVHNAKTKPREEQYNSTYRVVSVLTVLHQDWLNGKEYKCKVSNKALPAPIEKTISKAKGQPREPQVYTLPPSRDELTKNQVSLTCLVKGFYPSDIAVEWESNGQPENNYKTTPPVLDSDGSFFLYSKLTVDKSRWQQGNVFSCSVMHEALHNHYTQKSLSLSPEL

- Kd (Siglec-2 Fc chimeras): 4.34 µM
Compound: COC1(C(=O)O)CC(O)C(NC(C)=O)C(C(O)C(O)CNC(=O)c2ccc(-c3ccccc3)cc2)O1 (stereo not drawn) [compound 2, 9-BPC-Neu5Acα2Me, reference compound]
- increase of overall potency by a factor (Siglec-2; relative to Neu5Acα2Me (1)): 224

- Kd (Siglec-2 Fc chimeras): 0.66 µM
Compound: COC1(C(=O)O)CC(NC(=O)c2cccc([N+](=O)[O-])c2)C(NC(C)=O)C(C(O)C(O)CNC(=O)c2ccc(-c3ccccc3)cc2)O1 (stereo not drawn) [compound 3, 9-biphenylcarboxamido-4-meta-nitrophenyl-carboxamido-Neu5Acα2Me]
- increase in STD NMR signal intensity, Siglec-2 transfected versus untransfected HEK293T cells ([1]; 1.0 × 10^6 cells, 283 K): 75 fold
- STD NMR signal intensity with non-transfected HEK293T cells ([1]; 1.0 × 10^6 untransfected cells): Very low signal intensity
- STD NMR signals in the presence of BL Daudi cells [2]: strong and significant signals
- increase in absolute STD NMR signal intensity, Siglec-2^high versus Siglec-2^low BL Daudi cells ([2]; N-acetyl methyl protons, 5.0 × 10^5 sorted cells): 46%
- change in STD NMR signal intensities with periodate pretreated BL Daudi cells ([2]; cells pre-treated with 2 mM NaIO4, versus untreated cells): significant increase
- fold higher affinity than 9-BPC-Neu5Acα2Me (2) (Siglec-2; relative to 2): 15 fold

- Kd (Siglec-2 Fc chimeras): 0.182 µM
Compound: CC(=O)N[C@@H]1[C@@H](NC(=O)c2cccc([N+](=O)[O-])c2)[C@H](O)[C@](OCc2cn(CC(=O)O)nn2)(C(=O)O)O[C@H]1[C@H](O)[C@H](O)CNC(=O)c1ccc(-c2ccccc2)cc1 [compound 7]
- STD NMR signals in the presence of BL Daudi cells [2]: strong STD NMR signals

- Kd (Siglec-2 Fc chimeras): 0.175 µM
Compound: COc1cccc(C(=O)N[C@@H]2[C@@H](NC(C)=O)[C@H]([C@H](O)[C@H](O)CNC(=O)c3ccc(-c4ccccc4)cc3)O[C@@](OCc3cn(CC(=O)O)nn3)(C(=O)O)[C@H]2O)c1 [compound 8, 9-BPC-2-(4-carboxymethyl-[1,2,3]triazol-1-yl)-3-hydroxy-4-meta-methoxyphenyl-carboxamido-Neu5Acα2Me]

More lines, now with the values behind:

Compound: COC1(C(=O)O)CC(O)C(NC(C)=O)C(C(O)C(O)CO)O1 (stereo not drawn) [compound 1, Neu5Acα2Me]
- IC50 (Siglec-2; read-out: IC50 value (binding potency for Siglec-2)): 1400 µM

Compound: OC[C@H]1O[C@@](CO)(O[C@H]2O[C@H](CO)[C@@H](O)[C@H](O)[C@H]2O)[C@@H](O)[C@@H]1O [sucrose, reference compound]
- STD NMR signals in the presence of BL Daudi cells [2]: no STD NMR signals can be detected

Compound: Rituximab: anti-CD20 antibody
- patients suffering from severe side effects [3]: 80%
